The record followed here is PubChem BioAssay AID602156 (GNF / Scripps Winzeler lab, 2011).

The source made the active and inactive calls. No rule for the calls is given here. Some results are limits rather than exact numbers.

In the assay the test system is P. yoelii liver stage in HepG2-A16-CD81EGFP, imaging. In words: exo-erythrocytic parasite development inhibition – imaging, Malaria Box, P. yoelii, HepG2-A16-CD81EGFP, dose response (AID 602156).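 Also: infected cells exposed to compound for 48 hours before fixation.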

A word on the IC50: it is the point on the concentration scale where inhibition reaches its midpoint.

On to `COc1ccc2c(C)nc(Nc3nc(C)cc(-c4ccccc4)n3)nc2c1`, for which the IC50 was 6660 nM.

As for `CCOC(=O)c1ccc(NCc2c(C)[nH]c3ccccc3c2=O)cc1`, the IC50 is 137 nM.

In the case of `CCCN(C(=O)Nc1c(C(C)C)cccc1C(C)C)C(CC)c1nc2ccccc2c(=O)n1-c1cccc(C)c1` (stereo unspecified), the IC50 is 6300 nM.

Turning to `COc1ccc2sc(Nc3nc(-c4ccccn4)cs3)nc2c1`, the IC50 was 159 nM.

Regarding `CC1(C)N=C(N)N=C(N)N1c1ccc(Oc2ccc(Cl)cc2)c(Cl)c1`, the IC50 was 73 nM.

As for `CSc1nnc(-c2cccc([N+](=O)[O-])c2)n1Cc1ccccc1`, the IC50 was 2510 nM.

With `COc1ccc2cc3[n+](cc2c1OC)CCc1cc2c(cc1-3)OCO2`, the IC50 is 548 nM.

As for `CC(=O)Nc1cccc(-c2cncc(-c3ccc(C(=O)O)cc3)n2)c1`, the IC50 was > 10000 nM (inactive).

For the compound `N=c1c2c(n(Cc3ccc(Cl)cc3)c3c1CCC3)CCC2`, the IC50 was 91.1 nM.

As to `N#CCSc1nc2ccccc2c2nc(CCc3c[nH]c4ccccc34)nn12`, the IC50 is > 10000 nM (inactive).

Regarding `O=[N+]([O-])c1cc(C(F)(F)F)ccc1N1CCCN(C(=S)Nc2ccccc2)CC1`, the IC50 is 2230 nM.

For the compound `CCN1C(=O)N(CC)C(NNC(N)=S)C1NNC(N)=S` (stereo unspecified), the IC50 was 68.6 nM.

Turning to `CCN(CC)CCCN(Cc1cc2ccc(C)cc2[nH]c1=O)C(=S)Nc1cccc(Cl)c1`, the concentration for half-maximal inhibition (IC50) is 448 nM.

On to `CCN(c1ccccc1)S(=O)(=O)c1ccc(F)c(C(=O)Nc2c(C)cccc2C)c1`, for which the IC50 is > 10000 nM (inactive).

As for `Cc1cn2c3ccccc3n(CCN3CCCC3)c2n1`, the IC50 was 1070 nM.

In the case of `Cc1ccc(OCC(=O)Nc2cccc(-c3nc4ncccc4o3)c2)cc1C`, the IC50 was > 10000 nM (inactive).

In the case of `Cc1ccnc(Nc2nc(-c3ccccn3)cs2)c1`, the IC50 is 95.6 nM.

Consider `CCOC(=O)c1c(NC(C)=O)sc2c1CCN(C(C)C)C2`, for which the IC50 was 3010 nM.

As to `O=c1c2c(nc3cc(-c4ccc(Br)cc4)[nH]n13)CCCC2`, the IC50 is 499 nM.

For `CN(C)c1cc[n+](CC(=O)Nc2ccc(Cl)cc2)cc1`, the IC50 was 584 nM.

As for `c1ccc(-c2csc(Nc3nc4cc5c(cc4s3)OCO5)n2)nc1`, the IC50 was 78.9 nM.

Regarding `S=C(NN=Cc1ccccn1)NC1CC2CC1C1C=CCC21` (stereo unspecified), the IC50 is 25.6 nM.

Consider `O=C(c1cccc([N+](=O)[O-])c1)c1ccc(Cl)c(Cl)c1`, for which the IC50 is 3810 nM.

With `c1ccc(-c2ccc(-c3ccccn3)nc2)nc1`, the IC50 is 39.4 nM.

`O=C1c2ccccc2-n2c1nc1ccccc1c2=O`: the IC50 is 225 nM.

On to `Cc1ccnc(NC(c2ccc3ccccc3c2)c2ccc3cccnc3c2O)c1` (stereo unspecified), for which the IC50 is 556 nM.

For the compound `CC(=O)N(C1=C(N(C)C)C(=O)c2ccccc2C1=O)c1ccc(F)cc1`, the IC50 is 57.3 nM.

Regarding `CCCCCCCn1c2c(c(=N)c3ccccc31)CCC2`, the IC50 is 76.5 nM.

Turning to `O=[N+]([O-])c1cccc(C(Nc2nccs2)c2ccc3cccnc3c2O)c1` (stereo unspecified), the IC50 was 358 nM.

On to `COc1ccc(C(c2ccc(N(C)C)cc2)c2ccc(N(C)C)cc2)cc1`, for which the IC50 is > 10000 nM (inactive).

With `CCCc1nc2ccc(NC(=O)c3ccco3)cc2c(=O)n1Cc1ccc(-c2ccccc2)cc1`, the IC50 was 306 nM.

In the case of `Cc1cccc(NC(=S)NC2CC3CCCC(C2)N3CCc2ccccc2)c1` (stereo unspecified), the IC50 was 277 nM.

On to `Cc1ccc(-c2c[n+]3c(n2-c2ccc(C)cc2)CCCCC3)cc1`, for which the IC50 was 146 nM.

For the compound `O=C1c2ccccc2C2=Nc3ccccc3SC(c3ccccc3F)C12` (stereo unspecified), the IC50 is 239 nM.

Consider `O=C(Cn1ccc(=NCc2ccccc2)cc1)c1ccc(I)cc1`, for which the IC50 was 825 nM.

For `c1ccc(OCCOc2ccc(Nc3ccnc4cc5ccccc5cc34)cc2)cc1`, the IC50 was 67.5 nM.

On to `COc1ccc(C2CC(=O)C3=C(C2)NC(C)=C(C(=O)OC(C)C)C3c2ccccc2OC)cc1OC` (stereo unspecified), for which the IC50 was > 10000 nM (inactive).

As to `COC(=O)c1c(-c2c(Cl)cccc2Cl)noc1NC(=O)NN1CCCCC1`, the IC50 was 647 nM.

Take `CCC(Sc1nnc(-c2ccc(C)cc2)c(-c2ccc(C)cc2)n1)C(=O)NCCOC` (stereo unspecified): the IC50 was 303 nM.

In the case of `COc1ccc(C2Sc3ccccc3NC3=C2C(=O)c2ccccc23)cc1` (stereo unspecified), the IC50 was 706 nM.

As for `CCCN(CCC)[P+](CCC)(c1ccc([P+](CCC)(N(CCC)CCC)N(CCC)CCC)cc1)N(CCC)CCC`, the IC50 is 280 nM.

On to `CCC(C)(C)c1ccc(OCCCC[n+]2cccc(C)c2C)c(C(C)(C)CC)c1`, for which the IC50 is 45.5 nM.

`O=C(Nc1ccc(C(F)(F)F)cc1)c1ccc(NCCCN2CCCCCC2)c([N+](=O)[O-])c1`: the IC50 was 450 nM.

On to `CCCCNC(=O)C(CC)Sc1nnc(-c2ccc(C)cc2)c(-c2ccc(C)cc2)n1` (stereo unspecified), for which the IC50 was 291 nM.

With `CCCCSc1oc(C)nc1[P+](c1ccccc1)(c1ccccc1)c1ccccc1`, the IC50 is 82.1 nM.

Consider `CCOC(=O)c1c(CNC)n(C)c2cc(Br)c(O)cc12`, for which the IC50 was > 10000 nM (inactive).

Turning to `Cc1oc2c(c1C(=O)NCCCn1ccnc1)C(=O)c1ccccc1C2=O`, the 50% inhibitory concentration (IC50) was 119 nM.

As to `CCC(=O)NC(c1ccccc1Cl)c1cc(Cl)c2cccnc2c1O` (stereo unspecified), the IC50 is 1010 nM.

Take `CC[n+]1c(/C=C/N(C)c2ccccc2)n(-c2ccccc2)c2ccc(-c3nc4ccccc4s3)cc21`: the IC50 was 14 nM.

In the case of `CCN(CC)c1ccc(NC(=O)c2cccs2)cc1`, the IC50 is 396 nM.

On to `O=C1c2ccccc2C2=Nc3ccccc3SC(c3cccc(F)c3)C12` (stereo unspecified), for which the half-inhibitory concentration (IC50) is 162 nM.

On to `Brc1ccc(-c2c[n+]3c(n2-c2ccccc2)SCC3)cc1`, for which the half-inhibitory concentration (IC50) is 828 nM.

Consider `CN1CCN(c2ccc(Nc3c4ccccc4nc4ccccc34)cc2)CC1`, for which the IC50 is 547 nM.

As for `O=C1C2=C(Nc3ccccc3SC2c2ccco2)c2ccccc21` (stereo unspecified), the IC50 was 113 nM.

As for `O=C(c1ccc2nc(N3CCCCC3)sc2c1)N1CCN(Cc2ccc3c(c2)OCO3)CC1`, the IC50 was > 9220 nM (inactive).

On to `CCOC(=O)c1cnc2ccc(OC)cc2c1NCc1cccs1`, for which the IC50 is 193 nM.

For `O=C1Nc2ccccc2C12Nc1ccccc1-c1nc3ccccc3n12` (stereo unspecified), the IC50 is > 10000 nM (inactive).

With `COc1ccc(C2CC(=O)C3=C(C2)NC(C)=C(C(=O)OC2CCCC2)C3c2ccc([N+](=O)[O-])cc2)cc1OC` (stereo unspecified), the IC50 is 3920 nM.

With `Oc1cccc(Nc2nc(NCC3CCCO3)c3ccccc3n2)c1` (stereo unspecified), the IC50 was 1040 nM.

Consider `CC(Oc1ccc(Cl)cc1Cl)c1nc(-c2ccc(NC(=O)c3cccs3)cc2)no1` (stereo unspecified), for which the IC50 is 114 nM.

Regarding `CCN1C(=Cc2cc[n+](C)cc2)C=Cc2cc(C)ccc21`, the IC50 is 170 nM.

As to `Cc1ccc(-c2c[n+]3c(n2-c2ccccc2)SCC3)cc1`, the IC50 was 1090 nM.

Turning to `CC(=O)N(C1=C(N2CCOCC2)C(=O)c2ccccc2C1=O)c1ccc(I)cc1`, the IC50 was 602 nM.

As for `O=C(c1cccc(Cl)c1)N1CCN(c2ccc([N+](=O)[O-])c(NC3CC3)c2)CC1`, the IC50 is 3200 nM.

Consider `Fc1ccc(Nc2nc(NCc3ccco3)c3ccccc3n2)cc1`, for which the IC50 was 74.9 nM.

With `CN(C)c1ccc(-c2n(C)c3ccccc3[n+]2C)cc1`, the IC50 is 175 nM.

In the case of `CCOc1ccc(NC(=O)C(C)Sc2nc3ccccc3[nH]2)cc1` (stereo unspecified), the IC50 is > 10000 nM (inactive).

For the compound `NC(Cc1ccccc1)C(=O)N1CCn2c(nc(-c3ccccc3)c2Nc2ccc3c(c2)OCO3)C1` (stereo unspecified), the IC50 was 1.85 nM.

Turning to `CC(C)(C)OC(=O)N1CCC(c2c(C(=O)Nc3cccc(C(F)(F)F)c3)cnn2-c2ccc(F)cc2F)CC1`, the IC50 is 3120 nM.

As for `NCC(=O)N1CCn2c(nc(-c3ccccc3)c2Nc2ccc3c(c2)OCO3)C1`, the IC50 is 221 nM.

Turning to `Nc1ccc(N2CCCCCC2)cc1`, the IC50 was 1950 nM.

On to `CCCn1c(-c2cccc(Br)c2)nc2ccccc21`, for which the IC50 is > 8910 nM (inactive).

Regarding `COc1ccc(Nc2nc(NCc3ccccc3)c3ccccc3n2)cc1`, the IC50 was 305 nM.

`Cc1cc(C(=O)Nc2cnn(Cc3ccc(Cl)cc3Cl)c2)no1`: the IC50 was 335 nM.

`Cc1nc2ccccc2c(=O)n1-c1ccc([N+](=O)[O-])cc1`: the IC50 is > 10000 nM (inactive).

For `CC(C)CC(N)C(=O)N1CCn2c(nc(-c3ccccc3)c2Nc2ccc3c(c2)OCO3)C1` (stereo unspecified), the IC50 was 186 nM.

With `COc1ccccc1Nc1nc(NCc2ccccc2)c2ccccc2n1`, the IC50 was 91.3 nM.

For `COc1cccc(OC)c1C(=O)Nn1c(-c2cccc(C)c2)nc2ccccc2c1=O`, the IC50 is > 10000 nM (inactive).

Consider `CC(C)c1nc(N2CCN(C(=O)Nc3ccccc3)CC2)c(C#N)c2c1COC(C)(C)C2`, for which the IC50 was 1020 nM.

`COc1ccc2nc(C)cc(Nc3ccc(Oc4ccc5ccccc5c4Cl)c(Cl)c3)c2c1`: the IC50 was 114 nM.

For the compound `O=C1C2=C(Nc3ccccc3SC2c2ccc(Br)cc2)c2ccccc21` (stereo unspecified), the IC50 was 327 nM.

Turning to `CN(C)c1ccc(C(C=C2C=C(c3ccccc3)C=C(c3ccccc3)O2)=C2C=CC(=[N+](C)C)C=C2)cc1`, the IC50 is 51.9 nM.

As to `COc1ccccc1-n1c(C=Cc2cc(Br)ccc2O)nc2ccccc2c1=O`, the IC50 is 4590 nM.

`Oc1cccc2ccc[n+](CC(O)Cn3c4ccccc4c4ccccc43)c12` (stereo unspecified): the IC50 was 311 nM.

As to `c1ccc(Cc2cc[n+](Cc3ccccc3)cc2)cc1`, the IC50 was 4520 nM.

Take `CC(=O)Nc1nc(C)c(-c2csc(Nc3ccc(C)cc3)n2)s1`: the IC50 is 1890 nM.

For `COc1cccc(N2C(N)=NC(N)=NC2(C)C)c1`, the IC50 is 29.5 nM.

On to `CC(C)NCC(O)Cn1c2ccc(Cl)cc2c2cc(Cl)ccc21` (stereo unspecified), for which the IC50 was 2970 nM.

As for `O=C1CC(c2ccccc2)CC2=C1C(c1ccccc1[N+](=O)[O-])Nc1ccccc1N2` (stereo unspecified), the IC50 was > 10000 nM (inactive).

For the compound `CC1(C)N=C(N)N=C(N)N1c1ccc(Cl)cc1`, the IC50 was 2.56 nM.

`Cc1cc(C)nc(N=C(N)Nc2cccc(O)c2)n1`: the IC50 was 152 nM.

As to `O=C(Nc1ccc(Oc2cccc(Oc3ccc(NC(=O)c4ccc(Br)o4)cc3)c2)cc1)c1ccc(Br)o1`, the IC50 was 433 nM.

Consider `O=C(c1cnsn1)N1CCCC(COc2cccc(CN3CCC(Cc4ccccc4)CC3)c2)C1` (stereo unspecified), for which the IC50 was 609 nM.

Consider `CCc1c(C#N)c(N)nc(SCC(=O)c2ccc(C)cc2)c1C#N`, for which the IC50 was > 10000 nM (inactive).

With `Cc1nc2cc(-c3ccc(I)cc3)[nH]n2c(=O)c1C`, the IC50 was 119 nM.

In the case of `CCn1c(/C=C/C=C2\N(C)c3ccccc3C2(C)C)[n+](Cc2ccccc2)c2ccccc21`, the IC50 was 6.76 nM.
